This is an account of results in patent publication US20260078103A1, “ISOQUINOLONES AS PI3K INHIBITORS” (OnKure, Inc., priority 2022, published 2026).

Series [1] has as its system phosphorylation of AKT (pAKT) in T47D cells expressing mutant PI3Ka (H1047R). In words: In vitro cell pAKT (Ser473) HTRF, T47D cells. It counts as cell-based. The method, boiled down:
(§1)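 T47D cells (RPMI, 10% FBS, 0.2 units/mL insulin) or SKBR3 cells (McCoy's 5a, 10% FBS) were seeded onto 10-point compound dilutions and incubated 6 h at 37 °C. After lysis, pAKT was detected overnight by HTRF (Eu cryptate/d2). IC50 was fitted from % inhibition relative to 0.1% DMSO and 10 uM alpelisib controls.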
Background: Time-resolved FRET reads energy transfer from a long-lived donor to a nearby acceptor.

For series [2], the system named is T47D cells expressing mutant PI3Ka (H1047R). The series can be described thus: In vitro cell proliferation, T47D cells (CellTiter-Glo). It counts as cell-based. Particulars: inhibition of proliferation, 72 hours, read-out: Avg T-47D EC50. The method, boiled down: (§2)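 Proliferation was read by CellTiter-Glo luminescence after 72 h of exposure to 10-point compound dilutions at 37 °C and 5% CO2. T47D (RPMI, 10% FBS, insulin 0.2 units/mL) and SKBR3 (McCoys 5a, 10% FBS) cells were seeded at 1,500 cells/well. EC50 was fitted from inhibition relative to DMSO and 10 uM Alpelisib.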
In general terms: ATP-based viability assays read luminescence as a measure of living cells.

Series [3] concerns phosphorylation of AKT (pAKT) in SKBR3 cells express WT PI3Ka. In words: In vitro cell pAKT (Ser473) HTRF, SKBR3 cells. Format: cell-based. Particulars: 6 hours. Summed up: as §1
The nature of series [4]: Mouse pharmacokinetics, single IV or PO dose, plasma LC/MS/MS. Format: in vivo. Particulars: CD1 mice; for PK-Mouse: PO F: PO 10 mg/kg vs IV 1 mg/kg; for AUC(0-t) / clearance: mouse, plasma; for clearance: read-out: PK-Mouse: IV Cl. As to the method: CD1 mice were dosed with a single IV or PO dose, followed by serial sampling of plasma at 0.0833 (IV only), 0.25, 0.5, 1, 2, 4, 8, 24 hours post dose. Desired serial concentrations of working solutions were achieved by diluting stock solution of analyte with 50% acetonitrile in water solution.10 μL of working solutions […] were added to 10 μL of the blank Female CD1 Mouse plasma to achieve calibration standards of 0.5˜1000 ng/ml (0.5, 1, 2, 5, 10, 50, 100, 500, 1000 ng/ml) in a total volume of 20 μL. Five quality control samples at 1 ng/ml, 2 ng/ml, 5 ng/ml, 50 ng/ml and 800 ng/ml for plasma were prepared independently of those used for the calibration curves. These QC samples were prepared on the day of analysis in the same way as calibration standards. 20 μL standards, 20 μL QC samples and 20 μL unknown samples (10 μL plasma with 10 μL blank solution) were added to 200 μL of acetonitrile containing IS mixture for precipitating protein respectively. Then the samples were vortexed for 30 s. after centrifugation at 4° Celsius, 4000 rpm for 15 min. The supernatant was diluted with water at a ratio of 1:2 (V/V, 1:2), Then 5 μL of diluted supernatant was injected into the LC/MS/MS system for quantitative analysis.

For series [5], the system named is SKBR3 cells express WT PI3Ka. In words: In vitro cell proliferation, SKBR3 cells (CellTiter-Glo). It counts as cell-based. The settings on record: inhibition of proliferation, 72 hours. Summed up:
as §2

Setting [6] is: IV 1 mg/kg, 20% PEG400/20% PG/60% of 20% HPβCD solution in water, read-out: PK-Mouse: IV AUC last.
[7] abbreviates: IV 1 mg/kg, 20% PEG400/20% PG/60% of 20% HPβCD solution in water.
Where [8] appears, read: PO 10 mg/kg, 30% SBEβCD in water, read-out: PK-Mouse PO AUC last.
Setting [9] is: cellular pAKT, T47D cells, mutant PI3Ka (H1047R), 6 hours; read-out: Avg T-47D IC50.

Molecules are shown by their SMILES. pEC50, pIC50: −log10 of the molar value. Read-outs that look alike come from different tables or passages of the source. A value given as a limit tells only on which side of the number the result lay.

The term pIC50 denotes the IC50 on a negative log10 scale, so that one unit is a factor of ten. The term pEC50 denotes −log10 of the EC50, conventionally taken in molar units. With `Cc1cc(C(C)Nc2ccccc2C(=O)O)c2cc(N3CCC(C)(C)CC3)n(C)c(=O)c2c1` (single isomer, unassigned) [Example 1, 2-((1-(3-(4,4-dimethylpiperidin-1-yl)-2,7-dimethyl-1-oxo-1,2-dihydroisoquinolin-5-yl)ethyl)amino)benzoic acid], the pIC50 is 6.30 to 9.00 in series [1] (read-out: Avg T-47D IC50; cellular pAKT, T47D cells, mutant PI3Ka (H1047R), 6 hours) and below 4.82 in series [3] (Homo sapiens, SK-BR-3, cellular pAKT). The figures for the pEC50 in series [2] and in series [5] were 6.30 to 9.00 and 4.82 to 5.70, respectively. Also, the “PK-Mouse: PO F” value in series [4] was 50%. The AUC(0-t) came out at 3060 ng·h/mL in series [4] (setting [6]) and 15200 ng·h/mL in series [4] (setting [8]). For the same compound, the clearance in series [4] (setting [7]) was 5.7 mL/min/kg.
For the compound `Cc1cc(C(C)Nc2ccccc2C(=O)O)c2cc(N3CCN(CC(F)(F)F)CC3)n(C)c(=O)c2c1` (single isomer, unassigned) [Example 8, 2-((1-(2,7-dimethyl-1-oxo-3-(4-(2,2,2-trifluoroethyl)piperazin-1-yl)-1,2-dihydroisoquinolin-5-yl)ethyl)amino)benzoic acid], the pIC50 in series [1] (setting [9]) was 6.30 to 9.00; in series [3] (cellular pAKT), 4.82 to 5.70. The pEC50 in series [2] was 6.30 to 9.00; in series [5], 4.82 to 5.70. For the same compound, the “PK-Mouse: PO F” value in series [4] turned out to be 62%. Besides, the AUC(0-t) was found to be 1440 ng·h/mL in series [4] (setting [6]) and 8900 ng·h/mL in series [4] (setting [8]). For the same compound, in series [4] (setting [7]), the clearance was found to be 11.7 mL/min/kg.
On to `Cc1cc(C(C)Nc2ccc(Cl)nc2C(=O)O)c2cc(C3=CCC(C)(C)CC3)n(C)c(=O)c2c1` (single isomer, unassigned) [Example 23, 6-chloro-3-((1-(3-(4,4-dimethylcyclohex-1-en-1-yl)-2,7-dimethyl-1-oxo-1,2-dihydroisoquinolin-5-yl)ethyl)amino)picolinic acid], for which the results for the pIC50 in series [1] (setting [9]) and in series [3] (cellular pAKT) were 5.70 to 6.30 and below 4.82, respectively. For the same compound, the pEC50 in series [2] was 6.30 to 9.00; in series [5] it was 4.82 to 5.70. In addition, the “PK-Mouse: PO F” value in series [4] came out at 106%. In addition, the AUC(0-t) in series [4] (setting [6]) was found to be 683 ng·h/mL; in series [4] (setting [8]), 7230 ng·h/mL. For the same compound, the clearance in series [4] (setting [7]) came out at 24.6 mL/min/kg.
